Molecules are shown by their SMILES.

Among the data in patent US12552790B2, “Positive modulators of the muscarinic acetylcholine receptor M4” (Vanderbilt University, priority 2023, dated 2026) are Emax and EC50 values, retold here.

Experiment [1] deals with T1, Human M2 (Homo sapiens, UniProt P08172).
T1 construct: expressed in transfected cells; host or cells: CHO-K1
T1 sequence (P08172 1-466): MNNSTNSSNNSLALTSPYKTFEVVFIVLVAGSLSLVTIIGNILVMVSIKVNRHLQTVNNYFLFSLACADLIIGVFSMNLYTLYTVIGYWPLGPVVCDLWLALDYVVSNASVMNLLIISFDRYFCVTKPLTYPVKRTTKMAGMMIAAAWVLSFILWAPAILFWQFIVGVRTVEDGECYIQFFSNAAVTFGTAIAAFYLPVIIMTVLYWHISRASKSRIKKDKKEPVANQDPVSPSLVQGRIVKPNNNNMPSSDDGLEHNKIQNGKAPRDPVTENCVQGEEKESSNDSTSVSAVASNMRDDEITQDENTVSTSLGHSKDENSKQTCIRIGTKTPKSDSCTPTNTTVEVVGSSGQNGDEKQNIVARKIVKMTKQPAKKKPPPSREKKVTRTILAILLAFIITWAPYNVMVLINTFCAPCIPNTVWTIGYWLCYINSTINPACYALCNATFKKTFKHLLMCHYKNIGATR
Briefly: M2 cell-based functional assay, calcium mobilization (selectivity). As to conditions: for Emax at 30 µM: % ACh maximum at 30 μM; for EC50: M2 cell-based functional assay, calcium flux. How it is done:
(§1) The high throughput assay was employed to measure receptor-induced mobilization of intracellular calcium to determine compound activity. Test compound was added to cells expressing the muscarinic receptors that were loaded with calcium sensitive fluorescent dye. After a ˜2.5 minute incubation period, a submaximal (EC20) concentration of acetylcholine was added, and the response measured. This kinetic assay allows for simultaneous screening and potency determination of multiple pharmacological modes of action including agonist and potentiator activity. CHO-K1 cells stably expressing muscarinic receptors were plated in growth medium lacking G418 and hygromycin at 15,000 cells/20 μL/well in Greiner 384-well black-walled, tissue culture (TC)-treated, clear-bottom plates (Greiner Bio-One). Cells were incubated overnight at 37° C. and 5% CO2. The next day, calcium assay buffer (Hank's balanced salt solution (HBSS), 20 mM HEPES, 2.5 mM Probenecid, 4.16 mM sodium bicarbonate (Sigma-Aldrich, St. Louis, MO)) was prepared to dilute compounds, agonists, and Fluo-4-acetomethoxyester (Fluo-4-AM), fluorescent calcium indicator dye. Compounds were serially diluted 1:3 into 10 point concentration response curves in DMSO using the Bravo Liquid Handler (Agilent, Santa Clara, CA), transferred to a 384 well daughter plates using an Echo acoustic liquid handler (Beckman Coulter, Indianapolis, Indiana), and diluted in assay Buffer to a 2× final concentration. The agonist plates were prepared using acetylcholine (ACh, Sigma-Aldrich, St. Louis, MO) concentrations for the EC20 and ECMAX responses by diluting in assay buffer to a 5× final concentration. The 2× dye solution (2.3 μM) was prepared by mixing a 2.3 mM Fluo-4-AM stock in DMSO with 10% (w/v) pluronic acid F-127 in a 1:1 ratio in assay buffer. Using a microplate washer (BioTek, Winooski, VT), cells were washed with assay buffer for 3 times to remove medium. After the final wash, 20 μL of assay buffer remained in the cell plates. Immediately, 20 μL of the 2× dye solution (final 1.15 μM) was added to each well of the cell plate using a Multidrop Combi dispenser (Thermo Fisher, Waltham, MA). After cells were incubated with the dye solutions for 45 min at 37° C. in the presence of 5% CO2, the dye solutions were removed and replaced with assay buffer using a microplate washer, leaving 20 μL of assay buffer in the cell plate.
The prepared compound, agonist, and cell plates were placed inside the Functional Drug Screening System uCell (FDSS uCell, Hamamatsu, Japan) to measure the calcium flux. The triple add protocol was used to measure Ca kinetics; Compound, ACh for EC20, and ACh for EC80 adds in an order. Briefly, after establishment of a fluorescence baseline for 2 seconds (excitation, 480 nm; emission, 530 nm), first add occurred by adding 20 μL of test compound to the cells, and the response was measured for 140 seconds. This is followed by second add; 10 μL (5×) of an EC20 concentration of ACh agonist was added to the cells, and the response of the cells was measured for 125 seconds. Immediately, the third add occurred by adding […] (5×) of an EC80 concentration of ACh and the response of the cells was measured for 90 seconds. Acetylcholine-mediated maximum response (ECmax) was measured by adding 1 mM ACh as third add in the control wells. DMSO vehicle was added to the control wells in the first add for assessing ACh EC20, EC80, and ECmax responses. Calcium fluorescence was recorded as fold over basal fluorescence and raw data were normalized to the maximal response to ACh agonist. Agonist activity was analyzed as a concentration-dependent increase in calcium mobilization upon compound addition. Positive allosteric modulator activity was analyzed as a concentration-dependent increase in the EC20 acetylcholine response. Antagonist activity was analyzed as a concentration-dependent decrease in the EC80 acetylcholine response. […]

The target of experiment [2] is T2, Human M4 (Homo sapiens, UniProt P08173).
T2 construct: expressed in transfected cells
T2 sequence (P08173 1-479): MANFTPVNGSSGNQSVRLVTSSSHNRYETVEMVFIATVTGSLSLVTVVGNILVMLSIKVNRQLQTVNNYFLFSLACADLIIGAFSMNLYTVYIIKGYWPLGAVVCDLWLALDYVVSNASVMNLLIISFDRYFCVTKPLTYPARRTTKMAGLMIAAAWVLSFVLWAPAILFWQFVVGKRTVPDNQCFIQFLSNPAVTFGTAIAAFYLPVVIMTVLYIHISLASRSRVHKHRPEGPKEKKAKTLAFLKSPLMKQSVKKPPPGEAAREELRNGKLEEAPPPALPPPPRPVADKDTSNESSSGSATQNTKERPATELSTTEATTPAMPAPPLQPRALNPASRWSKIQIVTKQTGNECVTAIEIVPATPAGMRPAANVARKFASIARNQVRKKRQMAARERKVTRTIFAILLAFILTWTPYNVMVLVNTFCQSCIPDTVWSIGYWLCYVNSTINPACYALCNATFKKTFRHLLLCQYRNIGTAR
The experiment can be described thus: M4 cell-based functional assay, calcium mobilization, potentiation of ACh EC20. As to conditions: for Emax at 30 µM: % ACh maximum at 30 μM; for EC50: CHO-K1 hM4-Gqi5 cells, calcium flux, ACh EC20. The protocol: Human and rat M4 cDNAs, along with the chimeric G protein Gqi5, were transfected into Chinese hamster ovary (CHO-K1) cells purchased from the American Type Culture Collection using Lipofectamine2000. The transfected cells were subjected to selection antbiotic treatment to generate stable cell lines; G418 sulfate (1 mg/ml) for selecting M4 expressing cells and Hygromycin B (500 μg/mL) for selecting Gqi5 expressing cells. The resulting polyclones were further screened to obtain monoclones of hM4-Gqi5 and rM4-Gqi5 for compound screening assay. Stable monoclone cells were maintained in Ham's F-12 medium containing 10% heat-inactivated fetal bovine serum (FBS), 1× Antibiotic/Antimycotic, 20 mM HEPES, 500 μg/mL G418 sulfate, and 200 μg/mL Hygromycin B in 37° C. humidified incubators in the presence of 5% CO2.
as §1
The prepared compound, agonist, and cell plates were placed inside the Functional Drug Screening System uCell (FDSS uCell, Hamamatsu, Japan) to measure the calcium flux. The triple add protocol was used to measure Ca kinetics; Compound, ACh for EC20, and ACh for EC80 adds in an order. Briefly, after establishment of a fluorescence baseline for 2 seconds (excitation, 480 nm; emission, 530 nm), first add occurred by adding 20 μL of test compound to the cells, and the response was measured for 140 seconds. This is followed by second add; 10 μL (5×) of an EC20 concentration of ACh agonist was added to the cells, and the response of the cells was measured for 125 seconds. […]
(A change in cytosolic calcium serves as a functional read-out for many receptors and channels.)

By Emax is commonly meant the maximal effect, on the per cent scale that the assay sets. What is called EC50 is the concentration at which the effect is half-maximal. Regarding `[2H]C1([2H])Oc2ccc(OC3CCN(c4nc5nn(C)c(=O)n5c5c4CCCC5)CC3)cc2OC1([2H])[2H]` [Compound A15, 5-(4-((2,3-dihydrobenzo[b][1,4]dioxin-6-yl-2,2,3,3-d4)oxy)piperidin-1-yl)-2-methyl-6,7,8,9-tetrahydro-[1,2,4]triazolo[4,3-a]quinazolin-1(2H)-one], in experiment [1], the Emax at 30 µM turned out to be 45% and the EC50 is 5920 nM. In experiment [2], the maximal effect (Emax) at 30 µM came to 83% and the concentration for a half-maximal effect (EC50) worked out at 53 nM.
The corresponding values for `[2H]C1(Oc2ccc3c(c2)OCCO3)CCN(c2nc3c(cc2C)C(=O)NC3)CC1` [Compound 10, 2-(4-((2,3-dihydrobenzo[b][1,4]dioxin-6-yl)oxy)piperidin-1-yl-4-d)-3-methyl-6,7-dihydro-5H-pyrrolo[3,4-b]pyridin-5-one] are 60%, 330 nM, 93% and 3 nM.
The corresponding values for `[2H]C1([2H])Oc2ccc(OC3CCN(c4nc5c(cc4C)C(=O)N(C4CCCC4)C5)CC3)cc2OC1([2H])[2H]` [Compound 7, 6-cyclopentyl-2-(4-((2,3-dihydrobenzo[b][1,4]dioxin-6-yl-2,2,3,3-d4)oxy)piperidin-1-yl)-3-methyl-6,7-dihydro-5H-pyrrolo[3,4-b]pyridin-5-one] are 53%, 3750 nM, 76% and 65 nM.
The corresponding values for `[2H]C1([2H])Oc2ccc(OC3CCN(c4nc5nn(C(C)COC)c(=O)n5cc4C)CC3)cc2OC1([2H])[2H]` (centres unmarked) [Compound A7, 7-(4-((2,3-dihydrobenzo[b][1,4]dioxin-6-yl-2,2,3,3-d4)oxy)piperidin-1-yl)-2-(1-methoxypropan-2-yl)-6-methyl-[1,2,4]triazolo[4,3-a]pyrimidin-3(2H)-one] are 47%, greater than 10000 nM, 89% and 53 nM.
As to `[2H]C1([2H])Oc2ccc(OC3CCN(c4nc5nn([C@H]6CCOC6)c(=O)n5cc4C)CC3)cc2OC1([2H])[2H]` [Compound A5, (S)-7-(4-((2,3-dihydrobenzo[b][1,4]dioxin-6-yl-2,2,3,3-d4)oxy)piperidin-1-yl)-6-methyl-2-(tetrahydrofuran-3-yl)-[1,2,4]triazolo[4,3-a]pyrimidin-3(2H)-one], in experiment [1], the maximal response (Emax) at 30 µM came to 66% and the 50% effective concentration (EC50) stood at 2870 nM. Besides, in experiment [2], the maximal effect (Emax) at 30 µM worked out at 87% and the EC50 is 12 nM.
On to `[2H]C([2H])([2H])n1nc2nc(N3CCC(Oc4ccc5c(c4)OC([2H])([2H])C([2H])([2H])O5)CC3)c(C)c(C)n2c1=O` [Compound A18, 7-(4-((2,3-dihydrobenzo[b][1,4]dioxin-6-yl-2,2,3,3-d4)oxy)piperidin-1-yl)-5,6-dimethyl-2-(methyl-d3)-[1,2,4]triazolo[4,3-a]pyrimidin-3(2H)-one], for which, in experiment [1], the maximal response (Emax) at 30 µM worked out at 53% and the concentration giving a half-maximal response (EC50) is 1110 nM. In addition, in experiment [2], the Emax at 30 µM amounted to 98% and the EC50 was determined as 3 nM.
On the same counts, the results for `[2H]C1([2H])Oc2ccc(OC3CCN(c4nc5c(cc4C)C(=O)OC5)CC3)cc2OC1([2H])[2H]` [Compound 8, 2-(4-((2,3-dihydrobenzo[b][1,4]dioxin-6-yl-2,2,3,3-d4)oxy)piperidin-1-yl)-3-methylfuro[3,4-b]pyridin-5(7H)-one] are 56%, 494 nM, 104% and 3 nM.
Regarding `[2H]C1([2H])CC(Oc2ccc3c(c2)OC([2H])([2H])C([2H])([2H])O3)CC([2H])([2H])N1c1nc2c(cc1C)C(=O)NC2` [Compound 2, 2-(4-((2,3-dihydrobenzo[b][1,4]dioxin-6-yl-2,2,3,3-d4)oxy)piperidin-1-yl-2,2,6,6-d4)-3-methyl-6,7-dihydro-5H-pyrrolo[3,4-b]pyridin-5-one], the maximal response (Emax) at 30 µM was 57% in experiment [1] and 91% in experiment [2]. Besides, the results for the half-maximal effective concentration (EC50) in experiment [1] and in experiment [2] were 567 nM and 3 nM, respectively.
